According to the NIST ThermoML archive (doi:10.1016/j.jct.2007.05.011):

Tests used:
[1] = 101 kPa, Liquid; for mass density: Vibrating tube method
[2] = xn = mol fraction of the nth substance listed; conditions: 101 kPa, Liquid, x1 = 1; for mass density: Vibrating tube method

NCCO.O=CO [2-hydroxyethylammonium formate]
[1]
Conditions | mass density [kg/m3] | speed of sound [m/s]
288.15 K | 1183.57 | 1733.9
290.65 K | 1181.81 | 1727.4
293.15 K | 1180.04 | 1721.3
295.65 K | 1178.27 | 1715.1
298.15 K | 1176.49 | 1709
300.65 K | 1174.71 | 1702.9
303.15 K | 1172.94 | 1696.8
305.65 K | 1171.16 | 1690.8
308.15 K | 1169.39 | 1684.8
310.65 K | 1167.62 | 1678.7
313.15 K | 1165.84 | 1672.7
315.65 K | 1164.06 | 1666.7
318.15 K | 1162.29 | 1660.8
320.65 K | 1160.51 | 1654.8
323.15 K | 1158.73 | 1648.9

CO [methanol] + NCCO.O=CO
[2]
Conditions | mass density [kg/m3] | speed of sound [m/s]
288.15 K | 795.775 | 1134.5
290.65 K | 793.495 | 1126.2
293.15 K | 791.149 | 1118
295.65 K | 788.811 | 1109.8
298.15 K | 786.463 | 1101.6
300.65 K | 784.102 | 1093.4
303.15 K | 781.764 | 1085.5
305.65 K | 779.385 | 1077.3
308.15 K | 777.026 | 1069.2
310.65 K | 774.659 | 1061.1
313.15 K | 772.261 | 1052.9
315.65 K | 769.86 | 1044.9
318.15 K | 767.541 | 1036.7
320.65 K | 765.074 | 1028.6
323.15 K | 762.738 | 1020.5

CCO [ethanol]
[1]
Conditions | mass density [kg/m3] | speed of sound [m/s]
288.15 K | 794.444 | 1178.2
290.65 K | 792.305 | 1169.1
293.15 K | 790.158 | 1160.3
295.65 K | 788.027 | 1151.7
298.15 K | 785.89 | 1143.1
300.65 K | 783.729 | 1134.6
303.15 K | 781.591 | 1126.2
305.65 K | 779.402 | 1117.8
308.15 K | 777.238 | 1109.4
310.65 K | 775.055 | 1101
313.15 K | 772.846 | 1092.7
315.65 K | 770.625 | 1084.3
318.15 K | 768.482 | 1075.9
320.65 K | 766.198 | 1067.5
323.15 K | 764.019 | 1058.8

O [water] + NCCO.O=CO
[2]
Conditions | mass density [kg/m3] | speed of sound [m/s]
290.65 K | 998.68 | 1474.7
295.65 K | 997.65 | 1489.9
300.65 K | 996.37 | 1503.4
305.65 K | 994.86 | 1515.1
310.65 K | 993.15 | 1525
313.15 K | – | 1529.3
315.65 K | 991.24 | 1533.2
318.15 K | – | 1536.6
320.65 K | 989.15 | 1539.6
323.15 K | 988.04 | 1542.1

CO [methanol]
[1]
Conditions | mass density [kg/m3] | speed of sound [m/s]
288.15 K | 795.775 | 1134.5
290.65 K | 793.495 | 1126.2
293.15 K | 791.149 | 1118
295.65 K | 788.811 | 1109.8
298.15 K | 786.463 | 1101.6
300.65 K | 784.102 | 1093.4
303.15 K | 781.764 | 1085.5
305.65 K | 779.385 | 1077.3
308.15 K | 777.026 | 1069.2
310.65 K | 774.659 | 1061.1
313.15 K | 772.261 | 1052.9
315.65 K | 769.86 | 1044.9
318.15 K | 767.541 | 1036.7
320.65 K | 765.074 | 1028.6
323.15 K | 762.738 | 1020.5

CCO [ethanol] + NCCO.O=CO
[2]
Conditions | mass density [kg/m3] | speed of sound [m/s]
288.15 K | 794.444 | 1178.2
290.65 K | 792.305 | 1169.1
293.15 K | 790.158 | 1160.3
295.65 K | 788.027 | 1151.7
298.15 K | 785.89 | 1143.1
300.65 K | 783.729 | 1134.6
303.15 K | 781.591 | 1126.2
305.65 K | 779.402 | 1117.8
308.15 K | 777.238 | 1109.4
310.65 K | 775.055 | 1101
313.15 K | 772.846 | 1092.7
315.65 K | 770.625 | 1084.3
318.15 K | 768.482 | 1075.9
320.65 K | 766.198 | 1067.5
323.15 K | 764.019 | 1058.8
